The target in one test is T1, A2A receptors in the dog (Canis lupus familiaris, UniProt P11617).
T1 construct: the cortical (dA1) and striatal (dA2A) tissue was dissected and frozen; from tissue; host or cells: Beagle dog brain striatum, membranes
Briefly: Radioligand binding assay, dog A2A receptor (striatal tissue). More on the design: species or system dog (Beagle). The following applies: read-out: pKi, dog A2A receptor (converted).

The test system of test [1] is male Wistar rats. Briefly: APEC-induced hypolocomotion test. It is filed as in vivo, rat. The method, then: APEC (2-[(2-aminoethylamino)carbonylethyl-phenyl-ethylamino]-5′-ethylcarboxamido-adenosine), an A2A receptor agonist, reduces spontaneous motor activity in a dose-dependent manner. APEC-induced hypolocomotion is attenuated by selective A2A receptor antagonists but not by selective A1 receptor antagonists.
Control animals received vehicle only or vehicle and APEC. The animals were placed in plexiglass test cages with arrays of photocells linked to a computer, and motor activity was recorded for 15 min. Data are mean±SEM based on 8 animals per group.
APEC (2-[(2-aminoethylamino)carbonylethyl-phenyl-ethylamino]-5′-ethylcarboxamidoadenosine) is an adenosine A2A receptor agonist which reduces spontaneous motor activity in a dose-dependent manner. APEC-induced hypolocomotion is attenuated by selective A2A receptor antagonists but not by selective A1 receptor antagonists (Marston H M et al. Pharmacological characterization of a simple behavioral response mediated selectively by central adenosine A1 receptors, using in vivo and in vitro techniques. J Pharm Exp Ther. 1998; 285:1023-1030.)
Male adult Wistar rats (HanBrl: Wist (SPF) RCC) weighing approximately 140-200 g were used. The animals were housed in groups of four in Macrolon Type 3 cages (810 cm^2) with sawdust bedding. Tap water and standard laboratory chow (Ratte Alleinfutter, extrudat No 3436; Provimikliba Kaiseraugst, Switzerland) were continuously available except during testing. The animal quarters were maintained on a 12:12 hr light-dark cycle with light onset at 6 a.m. Room temperature (21-23° C.) and humidity (55-65%) were kept constant. At the conclusion of testing, rats were euthanized by means of CO2 inhalation. […]
Locomotor activity was monitored with a Digiscan Animal Activity Monitoring system (Model RXYZCM Omnitech Electronics, Columbus, Ohio). […] Ten minutes after APEC administration, animals were then placed in the test cages where horizontal activity was recorded for 15 min. […]
Data was analyzed by Kruskal-Wallis ANOVA followed by Mann-Whitney U-test. […]

The subject of test [2] is male Wistar rats. Briefly: Passive avoidance test, scopolamine-induced amnesia. Type of test: in vivo, rat. From the text:
This test relies on training rodents to avoid an aversive event (electric shock) by curbing a normal behavior, and at specified intervals after training, testing the animals for retention of such learning.
Adult rats were trained in a step-down test to avoid foot shock by remaining on a plastic platform. […] Amnesia was induced by administering scopolamine subcutaneously (sc) given immediately post-training.
The protocol to generate FIG. 6 data are as follows: Adult rats (n=16/dose group) were trained to avoid foot shock by remaining on a plastic platform in a step-down test. […] Amnesia was induced by administration of scopolamine sc at 1 mg/kg immediately post-training. Retention, measured as the % of rats with correct responses, was assessed 2 h post-training.
Male adult Wistar rats (HanBrl: WIST (SPF); RCC Füllinsdorf) weighing approximately 94-113 g were used. The animals were housed in groups of four in Macrolon Type 3 cages (810 cm^2) with sawdust bedding. Tap water and standard laboratory chow (Ratte Alleinfutter, extrudat No 3436; Provimikliba Kaiseraugst, Switzerland) were continuously available except during testing. The animal quarters were maintained on a 12:12 hr light-dark cycle with light onset at 6 a.m. […]
Two hours after the training and the post-training treatment, each rat was evaluated for retention of the passive avoidance response in the retention test. […]

The mark [3] stands for this setting: po, 2 h before recording, APEC 0.01 mg/kg sc.

“Also recorded” adds a separate entry of the source.

T1 sequence (P11617 whole entry): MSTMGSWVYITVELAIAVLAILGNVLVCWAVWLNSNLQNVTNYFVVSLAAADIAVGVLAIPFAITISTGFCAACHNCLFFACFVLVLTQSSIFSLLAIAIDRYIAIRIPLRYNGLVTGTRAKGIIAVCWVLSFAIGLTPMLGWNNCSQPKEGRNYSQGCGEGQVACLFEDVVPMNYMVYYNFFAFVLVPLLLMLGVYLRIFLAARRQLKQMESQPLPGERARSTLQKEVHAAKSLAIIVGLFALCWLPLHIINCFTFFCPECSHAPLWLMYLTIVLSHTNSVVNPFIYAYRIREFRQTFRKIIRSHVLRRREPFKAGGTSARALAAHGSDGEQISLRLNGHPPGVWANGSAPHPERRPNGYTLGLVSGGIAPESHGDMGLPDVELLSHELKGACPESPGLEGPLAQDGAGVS

`COc1ccc(N2CCOCC2)c2sc(NC(=O)N3CCC(C)(O)CC3)nc12` [4-hydroxy-4-methyl-piperidine-1-carboxylic acid (4-methoxy-7-morpholin-4-yl-benzothiazol-2-yl)-amide]: the Ki at A2A receptors in the dog is 12.6 nM. Also, the “effect on APEC-induced deficits in locomotor activity” value in the test with male Wistar rats [1] (0.3 to 10 mg/kg po, vs vehicle + APEC) was “significantly reduced”. Also, in the test with male Wistar rats [1] (setting [3]), the “ID50, reversal of APEC-induced deficits in locomotor activity” value was 0.5 mg/kg and the “ID90, reversal of APEC-induced deficits in locomotor activity” value was found to be 3.4 mg/kg. In the test with male Wistar rats [2] (100 mg/kg po + scopolamine 1 mg/kg sc, 2 h post-training, scopolamine + vehicle 12.5%), the “proportion of scopolamine-treated animals exhibiting passive avoidance retention (correct responses)” value was 43.75%. For the same compound, the “reversal of the scopolamine-induced retention deficit” value in the test on male Wistar rats [2] (3, 10, 30 and 100 mg/kg po immediately post-training) is “dose-dependent and statistically significant at the highest dose tested (100 mg/kg po); also recorded: dose-dependent reversal”.

The values are drawn from US20090082341A1 (SYNOSIA THERAPEUTICS, priority 2007, published 2009).
